Reference: ChEMBL document CHEMBL1201862, “PubChem BioAssay data set” (2004)
The source made the active and inactive calls.

Legend:
[1] = target: T1, Polyadenylate-binding protein 1 (Homo sapiens, UniProt P11940); assay: PABP1 MLLE–PAM2 binding inhibitor potency, dose response, biochemical, fluorescence polarization, FITC-PAM2 peptide (AID 602259); format: functional; conditions: read-out: IC50_Mean
[2] = target: T1, Polyadenylate-binding protein 1; assay: PABP1 MLLE–PAM2 interaction inhibitors, dose response, miRNA deadenylation inhibitor project, biochemical, fluorescence polarization, Cy5-PAM2 peptide, secondary (AID 602260); format: functional; conditions: read-out: IC50_Mean
H9c2 = assay: cells; format: functional, cell-based; conditions: Rattus norvegicus, H9c2, Myocardium;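 further: confirmatory concentration-response retest of ultra-high-throughput screening hits for modulation of myocardial damage; cell death induced by hydrogen peroxide oxidative stress; compound pretreatment for 60 min then peroxide exposure for 2 h; potency is for protecting the cells against peroxide damage rather than for killing them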
BJ [3] = assay: cytotoxicity toward BJ-TERT fibroblasts, dose response, cell-based, RAS-independent, luminescence (AID 1933); format: functional; conditions: Homo sapiens
BJ [4] = assay: cells; format: functional, cell-based; conditions: Homo sapiens
[5] = cytotoxicity toward DRD oncogenic fibroblasts, dose response, cell-based, non-viral oncogenic, luminescence (AID 1934); format: functional; conditions: Homo sapiens
BJ [6] = assay: cytotoxicity toward BJ-TERT-LT-ST fibroblasts, dose response, cell-based, RAS-independent, luminescence (AID 1935); format: functional; conditions: Homo sapiens;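 further: BJ fibroblasts immortalized with TERT plus LT and ST oncogenes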
[7] = microbe, parasite or virus in culture; format: functional; conditions: Mycobacterium tuberculosis
[8] = target: FAD-linked sulfhydryl oxidase ALR (Homo sapiens, UniProt P55789); assay: inhibitors of human ALR sulfhydryl oxidase, dose response, biochemical, H2O2 detection, luminescence, cherry-pick (AID 493248)
[9] = target: T2, High affinity choline transporter 1 (Homo sapiens, UniProt Q9GZV3); assay: CHT inhibitors, dose response, cell-based, 5-point CRC, membrane potential dye (AID 504840); format: functional
T2 sequence (Q9GZV3 whole entry): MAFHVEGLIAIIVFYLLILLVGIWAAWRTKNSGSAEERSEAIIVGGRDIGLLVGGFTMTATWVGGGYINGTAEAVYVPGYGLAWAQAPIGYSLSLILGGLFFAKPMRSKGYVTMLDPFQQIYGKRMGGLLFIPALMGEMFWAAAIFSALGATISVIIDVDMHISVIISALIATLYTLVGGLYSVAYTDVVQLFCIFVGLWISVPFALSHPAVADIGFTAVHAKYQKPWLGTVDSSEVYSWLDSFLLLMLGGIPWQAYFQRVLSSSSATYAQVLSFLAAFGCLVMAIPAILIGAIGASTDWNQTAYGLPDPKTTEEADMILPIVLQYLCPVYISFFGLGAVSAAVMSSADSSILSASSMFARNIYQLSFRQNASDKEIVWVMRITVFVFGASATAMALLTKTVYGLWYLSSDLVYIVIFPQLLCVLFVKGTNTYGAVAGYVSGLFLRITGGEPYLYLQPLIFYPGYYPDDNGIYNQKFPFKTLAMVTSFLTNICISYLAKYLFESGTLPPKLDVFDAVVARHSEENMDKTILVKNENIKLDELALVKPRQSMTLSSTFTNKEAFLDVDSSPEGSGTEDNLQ

[10] = target: T3, Rac GTPase-activating protein 1 (Homo sapiens, UniProt Q9H0H5); assay: MgcRacGAP GTPase-activating activity inhibitors, confirmation, biochemical, ADP Hunter fluorescence, primary and confirmatory (AID 624330); format: functional
T3 sequence (Q9H0H5 whole entry): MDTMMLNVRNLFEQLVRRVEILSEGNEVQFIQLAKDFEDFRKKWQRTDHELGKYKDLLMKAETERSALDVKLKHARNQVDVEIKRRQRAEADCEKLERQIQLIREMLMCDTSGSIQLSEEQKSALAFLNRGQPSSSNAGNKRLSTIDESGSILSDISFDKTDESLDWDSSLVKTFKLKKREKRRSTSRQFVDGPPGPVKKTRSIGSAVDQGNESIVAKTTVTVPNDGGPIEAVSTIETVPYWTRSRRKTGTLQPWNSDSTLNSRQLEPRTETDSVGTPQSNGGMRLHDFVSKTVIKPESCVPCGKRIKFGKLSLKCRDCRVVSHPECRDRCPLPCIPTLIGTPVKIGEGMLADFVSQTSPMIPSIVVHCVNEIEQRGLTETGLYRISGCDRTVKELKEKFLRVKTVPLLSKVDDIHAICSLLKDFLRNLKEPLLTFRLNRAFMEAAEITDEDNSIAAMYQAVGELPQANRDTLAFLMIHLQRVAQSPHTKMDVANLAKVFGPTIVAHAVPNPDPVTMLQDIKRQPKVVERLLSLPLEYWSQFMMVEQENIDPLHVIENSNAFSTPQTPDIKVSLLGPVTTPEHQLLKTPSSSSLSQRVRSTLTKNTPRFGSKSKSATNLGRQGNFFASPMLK

[11] = target: T4, Corticotropin-releasing factor receptor 2/Corticotropin-releasing factor-binding protein (Homo sapiens, UniProt P24387+Q13324); assay: activators of CRF receptor 2 with binding protein – uHTS hits, confirmation (AID 602473); format: functional; conditions: read-out: EC50_Mean
T4 sequence (Q13324 whole entry): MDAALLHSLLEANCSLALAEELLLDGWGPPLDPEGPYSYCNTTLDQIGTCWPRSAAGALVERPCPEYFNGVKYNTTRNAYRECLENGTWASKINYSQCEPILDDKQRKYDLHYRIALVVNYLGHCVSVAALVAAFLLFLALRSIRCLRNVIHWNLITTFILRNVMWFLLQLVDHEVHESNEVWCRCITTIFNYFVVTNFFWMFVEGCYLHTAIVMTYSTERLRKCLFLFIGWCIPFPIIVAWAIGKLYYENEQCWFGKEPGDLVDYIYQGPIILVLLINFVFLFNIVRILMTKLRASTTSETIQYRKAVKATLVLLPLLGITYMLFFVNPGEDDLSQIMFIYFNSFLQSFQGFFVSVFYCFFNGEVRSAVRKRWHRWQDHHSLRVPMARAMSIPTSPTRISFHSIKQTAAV
T4 sequence (P24387 whole entry): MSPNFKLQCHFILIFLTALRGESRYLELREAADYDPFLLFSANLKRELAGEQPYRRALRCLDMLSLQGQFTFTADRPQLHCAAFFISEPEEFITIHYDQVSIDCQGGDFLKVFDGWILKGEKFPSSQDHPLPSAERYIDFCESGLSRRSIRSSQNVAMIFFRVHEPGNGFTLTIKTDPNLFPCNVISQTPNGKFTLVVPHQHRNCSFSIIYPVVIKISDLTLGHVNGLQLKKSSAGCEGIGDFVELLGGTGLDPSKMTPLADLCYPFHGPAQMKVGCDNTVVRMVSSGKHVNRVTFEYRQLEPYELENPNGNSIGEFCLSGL

[12] = target: T4, Corticotropin-releasing factor receptor 2/Corticotropin-releasing factor-binding protein; assay: Dose Response confirmation of uHTS hits for small molecule antagonists of the CRF-binding protein and CRF-R2 receptor complex.; format: functional; conditions: read-out: IC50_Mean

T1 sequence (P11940 whole entry): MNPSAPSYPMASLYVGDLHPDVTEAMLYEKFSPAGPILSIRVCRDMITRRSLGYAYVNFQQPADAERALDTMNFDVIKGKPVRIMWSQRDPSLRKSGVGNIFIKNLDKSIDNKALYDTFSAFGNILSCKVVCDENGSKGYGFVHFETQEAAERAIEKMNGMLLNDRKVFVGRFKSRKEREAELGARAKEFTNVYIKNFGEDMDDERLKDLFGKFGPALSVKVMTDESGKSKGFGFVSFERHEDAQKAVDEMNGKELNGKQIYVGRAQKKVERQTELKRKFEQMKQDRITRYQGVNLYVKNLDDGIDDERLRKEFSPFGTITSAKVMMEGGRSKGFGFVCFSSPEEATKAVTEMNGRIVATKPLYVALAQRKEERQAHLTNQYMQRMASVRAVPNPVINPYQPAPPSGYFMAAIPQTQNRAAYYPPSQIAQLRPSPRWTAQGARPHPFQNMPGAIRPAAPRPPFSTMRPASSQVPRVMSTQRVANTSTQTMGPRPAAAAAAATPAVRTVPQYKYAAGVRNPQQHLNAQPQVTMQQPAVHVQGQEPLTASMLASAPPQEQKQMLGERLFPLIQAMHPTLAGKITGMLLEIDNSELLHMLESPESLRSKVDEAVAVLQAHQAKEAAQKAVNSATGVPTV
Chain of FAD-linked sulfhydryl oxidase ALR (P55789 whole entry): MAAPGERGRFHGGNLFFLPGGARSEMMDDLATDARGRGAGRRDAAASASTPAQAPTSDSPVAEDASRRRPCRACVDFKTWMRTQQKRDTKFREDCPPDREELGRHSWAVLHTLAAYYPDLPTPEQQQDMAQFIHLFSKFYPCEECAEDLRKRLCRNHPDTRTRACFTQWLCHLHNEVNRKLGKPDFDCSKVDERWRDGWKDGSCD

**Q.** For `O=C1C=C(NNC(=O)c2cccnc2)CC(c2ccco2)C1` (stereo not given), which IC50 [1] is on record?
**A.** Its IC50 is > 66 µM (inactive).

**Q.** And the IC50 [2]?
**A.** Its IC50 is > 66 µM (inactive).

**Q.** With `Cc1cccc(NC(=O)c2[nH]cnc2C(=O)NCC(=O)OCc2ccccc2)c1` as the compound, how does the IC50 (H9c2) read?
**A.** The IC50 was > 79 µM (inactive).

**Q.** For `Cc1cc(C(F)(F)F)nc(SCC(=O)NC2=NC(=O)C(C)S2)n1` (stereo not given), which IC50 [1] is on record?
**A.** Its IC50 is > 66 µM (inactive).

**Q.** And the IC50 [2]?
**A.** Its IC50 is > 66 µM (inactive).

**Q.** Which results are given for `O=C1CCCc2cc3c(cc21)CC1(C3)Cc2cc3c(cc2C1)C(=O)CCC3`?
**A.** EC50 (BJ [3]): 9.1 µM (active); EC50 (BJ [4]): 33 µM (active); EC50 [5]: 15.6 µM (active); EC50 (BJ [6]): 3.95 µM (inconclusive)

**Q.** For `Cc1cc(C)c2c(NC(=O)CCl)nn(C)c2n1`, which EC50 (BJ [3]) is on record?
**A.** The EC50 was 28.7 µM (active).

**Q.** And the EC50 (BJ [4])?
**A.** Its EC50 is > 150 µM (not active).

**Q.** What about the EC50 [5] of the same compound?
**A.** Its EC50 is 29.2 µM (active).

**Q.** And the EC50 (BJ [6])?
**A.** The EC50 was > 150 µM (inconclusive).

**Q.** For `Cc1ccc(N=C(S)C2=C(O)c3ccccc3N(C)S2(=O)=O)cc1`, which IC50 [1] is on record?
**A.** The IC50 was > 66 µM (inactive).

**Q.** And the IC50 [2]?
**A.** Its IC50 is > 66 µM (inactive).

**Q.** With `CC(OC(=O)Cc1nnc(O)c2ccccc12)C(=O)Nc1ccc(F)cc1` (stereo not given) as the compound, how does the IC50 (H9c2) read?
**A.** Its IC50 is > 79 µM (inactive).

**Q.** Which IC50 (H9c2) does the source give for `CCOc1ccc(CCNC(=O)c2cc3c(C)nccc3nc2O)cc1OCC` here?
**A.** The IC50 was > 79 µM (inactive).

**Q.** For `Cc1cc(NS(=O)(=O)c2ccc(NC(=S)NC(=O)c3ccc(F)cc3)cc2)no1`, which IC50 [1] is on record?
**A.** Its IC50 is > 66 µM (inactive).

**Q.** What about the IC50 [2] of the same compound?
**A.** Its IC50 is > 66 µM (inactive).

**Q.** Which CC50 [7] does the source give for `CSCCCN=C(S)N1CCN(c2ccc(C(C)=O)cc2)CC1` here?
**A.** Its CC50 is > 40 µM (active).

**Q.** For `COc1ccc(OC)c(C2C(C#N)=C(N)Oc3cc(N)ccc32)c1` (stereo not given), which AC50 [8] is on record?
**A.** The AC50 was 3.1 µM (active).

**Q.** Which AC50 [8] does the source give for `Cc1ncsc1CCC(=O)N1CCCC(Nc2ccc(C(C)C)cc2)C1` (stereo not given) here?
**A.** Its AC50 is 3.68 µM (active).

**Q.** With `CCCOc1ccc(C(CC(=O)O)NC(=O)CC(c2ccccc2)c2ccccc2)cc1` (stereo not given) as the compound, how does the IC50 [9] read?
**A.** Its IC50 is 12 µM (active).

**Q.** For `Cc1cccc(NC(=O)c2oc3ccc(S(=O)(=O)N4CCOCC4)cc3c2C)c1C`, which IC50 (H9c2) is on record?
**A.** The IC50 was > 79 µM (inactive).

**Q.** Which IC50 [10] does the source give for `Cc1cc(N2CCCC2)ccc1NC(=O)CN1C(=O)NC2(CCCCC2)C1=O` here?
**A.** Its IC50 is 268 µM (active).

**Q.** And the AC50 [8]?
**A.** The AC50 was 0.644 µM (active).

**Q.** For `O=C(c1ccc(O)cc1)c1ccc(Cl)cc1`, which IC50 [9] is on record?
**A.** Its IC50 is 11 µM (active).

**Q.** For `O=C(CCl)Nc1nccs1`, which EC50 [11] is on record?
**A.** The EC50 was > 53 µM (inactive).

**Q.** And the IC50 [12]?
**A.** Its IC50 is > 47.1 µM (inactive).

**Q.** What about the CC50 [7] of the same compound?
**A.** The CC50 was 13.7 µM (active).
